This note sets out measurements from patent US7781199B2, “Identification of a JAK2 mutation involved in Vaquez Polyglobulia” (priority 2004, dated 2010).

“Also recorded” adds a separate entry of the source.

The subject of one data set is V617F JAK2. As to the kind of experiment: Expression of V617F JAK2 in HEL cells after siRNA treatment. Format: cell-based, human. The note with it: 24 hours after treatment (FIGS. 8 and 9). As for the experimental part: FIGS. 8 and 9: Expression of V617F Jak2 in HEL cells is reduced 24 hours after treatment with siRNA specific to JAK2 V617F Jak2 (siRNA #1, 3 and 4).
Lanes 0 to 6: HEL cells treated (1 to 6) or non-treated (0) with siRNA V617F Jak2.
Lane C+: 293HEK cells transfected with the V617F Jak2RV vector
(§1) The results are shown FIGS. 8, 9 and 10.

In a further data set the test system is wild-type JAK2. As to the kind of experiment: Expression of wild-type JAK2 in K562 cells after siRNA treatment. The format is cell-based, human. The following applies: 24 hours after treatment (FIG. 10). As for the experimental part: FIG. 10: Level of WT Jak2 expression in K562 cells remains unchanged 24 hours after treatment with siRNA specific to Jak2 V617.
Lane Je: K562 cells treated with siRNA WT Jak2
Lanes 0 to 6: K562 cells treated with siRNA V617F Jak2
Lane C−: 293HEK (no expression of JAK2).
as §1

With “siRNA 4: siRNA specific to the V617F JAK2 mutation; said to correspond to SEQ ID No 27 (probably No 31, GAGUAUGUUUCUGUGGAGA) (listed as RNA, chemistry not given here)”, the “expression of V617F Jak2 protein” value in the data set with V617F JAK2 is recorded as “reduced; also recorded: inhibit”. In addition, the “level of WT Jak2 expression” value in the data set with wild-type JAK2 is given as “without inhibiting”.
On to “siRNA 3: siRNA specific to the V617F JAK2 mutation; said to correspond to SEQ ID No 26 (probably No 30, GGAGUAUGUUUCUGUGGAG) (listed as RNA, chemistry not given here)”, for which, in the data set with V617F JAK2, the “expression of V617F Jak2 protein” value is “reduced; also recorded: inhibit”. Besides, the “level of WT Jak2 expression” value with wild-type JAK2 is “without inhibiting”.
Taken in the same sequence, the figures for “siRNA 1: siRNA specific to the V617F JAK2 mutation; said to correspond to SEQ ID No 25 (probably No 29, UGGAGUAUGUUUCUGUGGA) (listed as RNA, chemistry not given here)” were “reduced; also recorded: inhibit” and “without inhibiting”.
